Source: paper PMC8776094, “Reactive Oxygen Species Production Is Responsible for Antineoplastic Activity of Osmium, Ruthenium, Iridium and Rhodium Half-Sandwich Type Complexes with Bidentate Glycosyl Heterocyclic Ligands in Various Cancer Cell Models” (International Journal of Molecular Sciences, 2022)

Key:
[1] = system: L428, a Hodgkin's lymphoma cell line; test: Cytostasis assay, 96 h, L428; format: cell-based; settings: for cytostatic activity on L428 cells (in words): 96 h; for L428 Max. Inh. (%): 96 h treatment, ND = not detected
Method: The compounds were tested between 0.001694 and 33.3333 µM, using a 4-hour-long MTT test to assess rapid toxicity and a 48-hour-long SRB assay to assess the long-term effects of the inhibition of proliferation (cytostasis). The MTT assay assesses the activity of mitochondrial complex I and detects rapid, direct toxicity, as well as indicating apoptosis and necrosis. The SRB assay measures the total protein content that is proportional to cell numbers; therefore, the assay can detect changes in cell numbers and can thus be used as a readout for cell proliferation. The SRB assay was performed after 48 h of treatment (with the exception of L428 cells, which were tested for 96 h due to their slower proliferation rate). In this setting, the SRB assay informs us of long-term changes to cell proliferation. We assessed the maximal inhibition within that concentration range, and descriptive statistics were performed. We performed a one-way ANOVA, followed by the Kruskal–Wallis test, regardless of the normal or non-normal distribution of the data. Due to the large number of significance values, the results of the significance calculations are provided in an Excel spreadsheet at https://figshare.com/s/28d14597d5041f08eb08 (accessed on 6 January 2022), among other primary data of the study. Where possible, nonlinear regression was performed on the curves to determine the IC50 values ((inhibitor) vs. response—variable slope (four parameters) method with Graphpad v8.0.1). […] In Table 5, we added the IC50 values that we determined for a set of 4 active ruthenium half-sandwich complexes we identified previously, to be used in subsequent structure-activity relationship (SAR) analyses.
We turned next to assessing whether the cytostatic activity of Os-3, Os-4, Os-5, Os-6 and Ir-6 complexes is specific for ovarian cancer cell lines or if they may be active on other cell lines. To that end, we tested the complexes on another carcinoma cell line (Capan2, a pancreatic adenocarcinoma cell line), on a sarcoma cell line (Saos, an osteosarcoma cell line) and on a lymphoma cell line (L428, a Hodgkin’s lymphoma cell line).
L428 cells were maintained in RPMI 1640 medium, supplemented with 10% fetal calf serum, 2 mM glutamine, and 1% penicillin-streptomycin.
The assay was performed similarly to the method used in [73]. Cells were seeded in 96-well plates the day before the assay. Cells were treated with the compounds for 48 h, with the exception of L428, where 96 h of treatment was applied. Cells were fixed with 10% trichloroacetic acid (TCA). Fixed cells were washed in distilled water 3 times, followed by staining with SRB (0.4 m/V% dissolved in 1% acetic acid) for 10 min. The stained cells were washed in 1% acetic acid 5 times; the acetic acid was removed, and the cells were left to dry. Protein-bound SRB was released by adding 100 µL 10 mM Tris base. Plates were measured in a plate photometer (Thermo Scientific Multiscan GO spectrophotometer, Waltham, MA, USA) at 540 nm. On each plate, wells were designed to contain untreated cells. In calculations, the readings for these wells were considered as 1 and all readings were expressed relative to these values.
Here, 1.5 × 10^3 Capan2, 3 × 10^3 Saos cells and 10^4 L428 cells were plated onto 96-well plates. Capan2 and Saos cells were treated with the compounds in the concentrations indicated for 48 h for an SRB assay. L428 cells were treated with the compounds in the concentrations indicated for 96 h, then cells were counted using conventional microscopy and a Burker chamber. Data are represented as average ± SD, from three biological replicates; individual assays were performed in duplicate. Values were normalized for vehicle-treated cells; the absorbance for vehicle-treated cells is equal to 1. A one-way ANOVA, followed by a Kruskal–Wallis test, was performed individually for each compound. […]

[2] = Determination of the distribution coefficients (logD), n-octanol/PBS; format: physicochemical; settings: n-octanol / PBS pH = 7.40, rt
Method: Before starting the experiments, n-octanol was saturated with an aqueous PBS solution (pH = 7.40) and vice versa. A solution of the appropriate complex (approximately 0.2–0.3 mg) in a mixture of 2.50 mL pre-saturated n-octanol and 2.50 mL pre-saturated PBS buffer was made, and the resulting mixture was then vigorously stirred for 3 days at rt. Based on our previous NMR stability experiments, this time is long enough to reach equilibrium among the various ionic complex species. Due to the lipophilic/hydrophilic features of the complexes, those with benzoyl protection could primarily be found in the n-octanol, while the complexes with O-peracetylated and O-deprotected ligands were in the aqueous PBS phase. The corresponding separated solution was centrifuged (ScanSpeed 406G instrument, 4000 RPM for 5 min) and the absorption of the ”stock solution” was determined (VWR UV-1600PC Spectrophotometer, 270–420 nm). Then, 2.00 mL of the stock solution was vigorously stirred with 16.00 mL of pre-saturated n-octanol or PBS solution. After one day had passed, the phases were separated, centrifuged, and the absorption of the solution was measured again. From the absorption difference of the stock solutions, the distribution coefficient (D) was determined using previously described formulae [71].

SMILES | cytostatic activity on L428 cells (in words) [1] | L428 Max. Inh. (%) [1] | LogD [2]
Cc1c(C)c(C)[c-](C)c1C.F[P-](F)(F)(F)(F)F.O=C(OCC1OC(n2cc(-c3ccccn3)nn2)C(OC(=O)c2ccccc2)C(OC(=O)c2ccccc2)C1OC(=O)c1ccccc1)c1ccccc1.[Cl][Ir+2] (mixture of isomers) [Ir-6] | active on all cell lines | 100% | 2.36
Cc1ccc(C(C)C)cc1.F[P-](F)(F)(F)(F)F.O=C(OCC1OC(c2nnc(-c3ccccn3)o2)C(OC(=O)c2ccccc2)C(OC(=O)c2ccccc2)C1OC(=O)c1ccccc1)c1ccccc1.[Cl][Os+] (mixture of isomers) [Os-3] | active on all cell lines | 100% | 3.32
Cc1ccc(C(C)C)cc1.F[P-](F)(F)(F)(F)F.O=C(OCC1OC(c2nnc(-c3ccccn3)o2)C(OC(=O)c2ccccc2)C(OC(=O)c2ccccc2)C1OC(=O)c1ccccc1)c1ccccc1.[Cl][Os+] (mixture of isomers) [Os-4] | active on all cell lines | 100% | 2.87
Cc1ccc(C(C)C)cc1.F[P-](F)(F)(F)(F)F.O=C(OC1COC(c2nnc(-c3ccccn3)o2)C(OC(=O)c2ccccc2)C1OC(=O)c1ccccc1)c1ccccc1.[Cl][Os+] (mixture of isomers) [Os-5] | active on all cell lines | 100% | 2.36
Cc1ccc(C(C)C)cc1.F[P-](F)(F)(F)(F)F.O=C(OCC1OC(n2cc(-c3ccccn3)nn2)C(OC(=O)c2ccccc2)C(OC(=O)c2ccccc2)C1OC(=O)c1ccccc1)c1ccccc1.[Cl][Os+] (mixture of isomers) [Os-6] | active on all cell lines | 100% | 2.33
